Here are results for six compounds from patent publication US7462625B2, “Gonadotropin-releasing hormone receptor antagonists and methods relating thereto” (Neurocrine Biosciences, Inc., priority 2000, dated 2008).

This assay has as its target T1, GnRH receptor (Homo sapiens, UniProt P30968).
T1 construct: expressed in transfected cells
T1 sequence (P30968 1-328): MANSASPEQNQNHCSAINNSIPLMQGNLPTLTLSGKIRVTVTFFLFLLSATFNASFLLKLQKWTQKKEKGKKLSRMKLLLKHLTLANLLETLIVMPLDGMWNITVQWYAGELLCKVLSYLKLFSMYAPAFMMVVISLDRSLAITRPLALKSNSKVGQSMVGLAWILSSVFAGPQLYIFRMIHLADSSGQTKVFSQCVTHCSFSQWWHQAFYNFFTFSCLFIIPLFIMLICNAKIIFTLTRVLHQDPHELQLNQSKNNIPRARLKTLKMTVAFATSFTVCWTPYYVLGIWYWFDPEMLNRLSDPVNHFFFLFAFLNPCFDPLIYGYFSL
Briefly: GnRH receptor membrane binding assay. The settings on record: GnRH receptor membrane binding assay, [125I]-labeled GnRH peptide; read-out: Ki.

For the compound `COc1cccc(-c2c(C)n(Cc3c(F)cccc3F)c(=O)n([C@H](C)CNCc3ccccc3)c2=O)c1` [9-312], the Ki (as a rule, the dissociation constant of the complex between target and ligand, obtained from inhibition or displacement) is less than 100 nM.
The same measure for `COc1ccc(CCNCCn2c(=O)c(-c3ccc4c(c3)OCO4)c(C)n(Cc3c(F)cccc3F)c2=O)cc1OC` [9-244]: less than 100 nM.
For the compound `Cc1cc(=O)n(C[C@@H](N)CC2CCCCC2)c(=O)n1Cc1c(F)cccc1F` [8-12], the Ki was less than 100 nM.
Consider `Cc1cc(=O)n(C[C@@H](N)Cc2ccccc2)c(=O)n1Cc1c(F)cccc1F` [8-4], for which the Ki was less than 100 nM.
`COc1cccc(-c2c(C)n(Cc3c(F)cccc3F)c(=O)n(C[C@@H](C(C)C)N(C)C)c2=O)c1F` [9-711]: the Ki is less than 100 nM.
The result for `COc1cccc(-c2c(C)n(Cc3c(F)cccc3F)c(=O)n(CCN3CCC[C@@H]3CO)c2=O)c1` [9-4] reads less than 100 nM.
